Each structure is given as a SMILES string. pIC50: −log10 of the molar value.

The test system of one assay is HCV genotype 1b replicon. In words: HCV replicon assay, cell ELISA with antibody to replicon-encoded NS3/4A (genotype 1b replicon). Type of assay: cell-based, hepatitis C virus. The note with it: HCV genotype 1b replicon; 96 hours incubation; NS3/4A cell ELISA; read-out: 1b IC50. The method in brief:
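An ELISA on lysed cells, using an antibody against NS3/4A protease, served as the proxy for replicon RNA. Cells had first been exposed for 96 h to serially diluted compound in G418-free conditions. Percent of DMSO control was fitted with a four-parameter function to give IC50.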
A general note: In antiviral work, replicon cells carry a viral genome segment that copies itself.
The term pIC50 denotes the IC50 on a negative log10 scale, so that one unit is a factor of ten. In the case of `CCOP(=O)(O)CCCN(c1cc2oc(-c3ccc(F)cc3)c(C(=O)NC)c2cc1-c1ccc(OC)c(-c2nc3c(F)cccc3o2)c1)S(C)(=O)=O` [Example 844], the pIC50 was 8.41.

The same assay, now with this note: Hepatitis C virus, 96 h, read-out: 1b IC50(nM), HCV genotype 1b replicon; 96 hours incubation; NS3/4A cell ELISA.
For orientation: IC50 means the point on the concentration scale where inhibition reaches its midpoint. Consider `CNC(=O)c1c(-c2ccc(F)cc2)oc2cc(N(CCC(C)(C)C#N)S(C)(=O)=O)c(-c3ccc(OC)c(-c4nc5c(F)cccc5o4)c3)cc12` [Example 733], for which the half-inhibitory concentration (IC50) is 7.78 nM. The same measure, in the same setting: with `CNC(=O)c1c(-c2ccc(F)cc2)oc2cc(N(CCC(C)(C)C#N)S(C)(=O)=O)c(-c3ccc(OC)c(-c4nc5c(F)cc(F)cc5o4)c3)cc12` [Example 735] the figure was 10.5 nM; with `CNC(=O)c1c(-c2ccc(F)cc2)oc2cc(N(CC3(C#N)CC3)S(C)(=O)=O)c(-c3ccc(OC)c(-c4nc5c(F)cccc5o4)c3)cc12` [Example 737], 19 nM; with `CNC(=O)c1c(-c2ccc(F)cc2)oc2cc(N(CC3(C#N)CC3)S(C)(=O)=O)c(-c3ccc(OC)c(-c4nc5c(F)cc(F)cc5o4)c3)cc12` [Example 738], 7.62 nM. Same read-out and setting: the figure for `CNC(=O)c1c(-c2ccc(F)cc2)oc2cc(N(C3CC(C#N)C3)S(C)(=O)=O)c(-c3cccc(-c4nc5ncccc5o4)c3)cc12` (stereo not shown) [Example 739] is 2.17 nM; for `CNC(=O)c1c(-c2ccc(F)cc2)oc2cc(N(C3CC(C#N)C3)S(C)(=O)=O)c(-c3ccc(OC)c(-c4nc5c(F)cccc5o4)c3)cc12` (stereo not shown) [Example 740] it is 4.76 nM; for `CNC(=O)c1c(-c2ccc(F)cc2)oc2cc(N(C3CC(C#N)C3)S(C)(=O)=O)c(-c3ccc(OC)c(-c4nc5c(C#N)cccc5o4)c3)cc12` (stereo not shown) [Example 741] it is 5.85 nM.

Regarding `CNC(=O)c1c(-c2ccc(F)cc2)oc2cc(N(C3CC(C#N)C3)S(C)(=O)=O)c(-c3ccc(OC)c(-c4nc5c(F)cc(F)cc5o4)c3)cc12` (stereo not shown) [Example 742], the half-maximal inhibitory concentration (IC50) turned out to be 4.57 nM. The same measure, in the same setting: with `CNC(=O)c1c(-c2ccc(F)cc2)oc2cc(N(CC3CCOC(c4ccccc4)O3)S(C)(=O)=O)c(-c3ccc(OC)c(-c4nc5c(F)cccc5o4)c3)cc12` (stereo not shown) [Example 769] the figure was 80.7 nM; with `CNC(=O)c1c(-c2ccc(F)cc2)oc2cc(N(CCC3COC(C)(C)O3)S(C)(=O)=O)c(-c3ccc(OC)c(-c4nc5c(F)cccc5o4)c3)cc12` (stereo not shown) [Example 770], 11.3 nM.

In the case of `CNC(=O)c1c(-c2ccc(F)cc2)oc2cc(N(CCC3COC(C)(C)O3)S(C)(=O)=O)c(-c3ccc(OC)c(-c4nc5c(F)cc(F)cc5o4)c3)cc12` (stereo not shown) [Example 771], the IC50 was 13.3 nM. On the same count and under the same terms, the figure for `CNC(=O)c1c(-c2ccc(F)cc2)oc2cc(N(CC(C)(C)O)S(C)(=O)=O)c(-c3ccc(OC)c(-c4nc5cccc(F)c5o4)c3)cc12` [Example 778] is 24.8 nM; for `CNC(=O)c1c(-c2ccc(F)cc2)oc2cc(N(CC(C)(C)O)S(C)(=O)=O)c(-c3ccc(OC)c(-c4nc5c(F)cccc5o4)c3)cc12` [Example 779] it is 8.28 nM.

As to `CNC(=O)c1c(-c2ccc(F)cc2)oc2cc(N(CC(C)(C)O)S(C)(=O)=O)c(-c3ccc(OC)c(-c4nc5cc(F)cc(F)c5o4)c3)cc12` [Example 780], the IC50 turned out to be 18.5 nM. The same measure, in the same setting: with `CNC(=O)c1c(-c2ccc(F)cc2)oc2cc(N(C(CO)CO)S(C)(=O)=O)c(-c3ccc(OC)c(-c4nc5c(F)cccc5o4)c3)cc12` [Example 782] the figure was 5.41 nM; with `CNC(=O)c1c(-c2ccc(F)cc2)oc2cc(N(CCC(O)CO)S(C)(=O)=O)c(-c3ccc(OC)c(-c4nc5c(F)cccc5o4)c3)cc12` (stereo not shown) [Example 784], 3.61 nM; with `CNC(=O)c1c(-c2ccc(F)cc2)oc2cc(N(CCC(O)CO)S(C)(=O)=O)c(-c3ccc(OC)c(-c4nc5c(F)cc(F)cc5o4)c3)cc12` (stereo not shown) [Example 785], 3.55 nM.

Regarding `CNC(=O)c1c(-c2ccc(F)cc2)oc2cc(N(CC(C)(CO)CO)S(C)(=O)=O)c(-c3ccc(OC)c(-c4nc5c(F)cc(F)cc5o4)c3)cc12` [Example 788], the IC50 was determined as 79 nM. Same read-out and setting: the figure for `CNC(=O)c1c(-c2ccc(F)cc2)oc2cc(N(CC(C)(C)F)S(C)(=O)=O)c(-c3ccc(OC)c(-c4nc5c(F)cccc5o4)c3)cc12` [Example 789] is 18.7 nM. Same read-out and setting: with `CNC(=O)c1c(-c2ccc(F)cc2)oc2cc(N(CC(C)(C)F)S(C)(=O)=O)c(-c3ccc(OC)c(-c4nc5c(F)cc(F)cc5o4)c3)cc12` [Example 791] the figure was 28.5 nM. With `CNC(=O)c1c(-c2ccc(F)cc2)oc2cc(N(CCC(C)(C)F)S(C)(=O)=O)c(-c3ccc(OC)c(-c4nc5c(F)cccc5o4)c3)cc12` [Example 796], the IC50 is 14 nM. Same read-out and setting: the figure for `CNC(=O)c1c(-c2ccc(F)cc2)oc2cc(N(CCC(C)(C)F)S(C)(=O)=O)c(-c3cccc(-c4nc5ncccc5o4)c3)cc12` [Example 797] is 2.43 nM. On to `CNC(=O)c1c(-c2ccc(F)cc2)oc2cc(N(C(CF)CF)S(C)(=O)=O)c(-c3ccc(OC)c(-c4nc5c(F)cccc5o4)c3)cc12` [Example 807], for which the IC50 was determined as 46.7 nM. On the same count and under the same terms, with `CNC(=O)c1c(-c2ccc(F)cc2)oc2cc(N(CC(C)(CF)CF)S(C)(=O)=O)c(-c3ccc(OC)c(-c4nc5c(F)cc(F)cc5o4)c3)cc12` [Example 809] the figure was 213 nM. As to `CNC(=O)c1c(-c2ccc(F)cc2)oc2cc(N(CC(F)CCF)S(C)(=O)=O)c(-c3ccc(OC)c(-c4nc5c(F)cccc5o4)c3)cc12` (stereo not shown) [Example 810], the IC50 was 13.4 nM. Same read-out and setting: with `CNC(=O)c1c(-c2ccc(F)cc2)oc2cc(N(CC(C)(CO)CF)S(C)(=O)=O)c(-c3ccc(OC)c(-c4nc5c(F)cccc5o4)c3)cc12` (stereo not shown) [Example 813] the figure was 107 nM; with `CNC(=O)c1c(-c2ccc(F)cc2)oc2cc(N(C(CO)CF)S(C)(=O)=O)c(-c3ccc(OC)c(-c4nc5c(F)cccc5o4)c3)cc12` (stereo not shown) [Example 814], 9.83 nM; with `CNC(=O)c1c(-c2ccc(F)cc2)oc2cc(N(CC(O)CCF)S(C)(=O)=O)c(-c3ccc(OC)c(-c4nc5c(F)cccc5o4)c3)cc12` (stereo not shown) [Example 815], 11.8 nM. As to `CNC(=O)c1c(-c2ccc(F)cc2)oc2cc(N(CC(O)CC#N)S(C)(=O)=O)c(-c3ccc(OC)c(-c4nc5c(F)cc(F)cc5o4)c3)cc12` (stereo not shown) [Example 819], the IC50 is 8.3 nM. Still for that read-out and setting: the figure for `CNC(=O)c1c(-c2ccc(F)cc2)oc2cc(N(CC(O)CC#N)S(C)(=O)=O)c(-c3ccc(OC)c(-c4nc5ccccc5o4)c3)cc12` (stereo not shown) [Example 820] is 5.06 nM; for `CNC(=O)c1c(-c2ccc(F)cc2)oc2cc(N(CCC(O)CC#N)S(C)(=O)=O)c(-c3ccc(OC)c(-c4nc5c(F)cccc5o4)c3)cc12` (stereo not shown) [Example 821] it is 3.27 nM; for `CNC(=O)c1c(-c2ccc(F)cc2)oc2cc(N(CC(O)Cn3ccnc3)S(C)(=O)=O)c(-c3ccc(OC)c(-c4nc5c(F)cccc5o4)c3)cc12` (stereo not shown) [Example 825] it is 8.88 nM. Regarding `CNC(=O)c1c(-c2ccc(F)cc2)oc2cc(N(CC(O)Cn3ncc4ccccc43)S(C)(=O)=O)c(-c3ccc(OC)c(-c4nc5c(F)cccc5o4)c3)cc12` (stereo not shown) [Example 827], the IC50 came to 11.8 nM.

Regarding `CNC(=O)c1c(-c2ccc(F)cc2)oc2cc(N(CC(C)N)S(C)(=O)=O)c(-c3cccc(-c4nc5ncccc5o4)c3)cc12` (stereo not shown) [Example 830], the IC50 was determined as 8.47 nM.

With `CNC(=O)c1c(-c2ccc(F)cc2)oc2cc(N(C3CN(C(=O)[C@@H](NC(=O)OC)C(C)C)C3)S(C)(=O)=O)c(-c3ccc(OC)c(-c4nc5c(F)cccc5o4)c3)cc12` [Example 834], the IC50 amounted to 11.5 nM. Same read-out and setting: with `CNC(=O)c1c(-c2ccc(F)cc2)oc2cc(N(C[C@@H](C)NC(=O)[C@@H](NC(=O)OC)C(C)C)S(C)(=O)=O)c(-c3cccc(-c4nc5ncccc5o4)c3)cc12` [Example 836] the figure was 82 nM. Same read-out and setting: with `CNC(=O)c1c(-c2ccc(F)cc2)oc2cc(N(CCCP(=O)(O)O)S(C)(=O)=O)c(-c3ccc(OC)c(-c4nc5c(F)cccc5o4)c3)cc12` [Example 843] the figure was 19.5 nM. Still for that read-out and setting: with `CN(C(=O)c1c(-c2ccc(F)cc2)oc2cc(N(C)S(C)(=O)=O)c(-c3cccc(-c4cc5ccccc5[nH]4)c3)cc12)c1ccncc1` [Example 848] the figure was 6440 nM; with `CN(c1cc2oc(-c3ccc(F)cc3)c(C(=O)Nc3cccnc3)c2cc1-c1cccc(-c2cc3ccccc3[nH]2)c1)S(C)(=O)=O` [Example 851, 5-(3-(1H-indol-2-yl)phenyl)-2-(4-fluorophenyl)-6-(N-methylmethylsulfonamido)-N-(pyridin-3-yl)benzofuran-3-carboxamide], 350 nM; with `CNC(=O)c1c(-c2ccc(F)cc2)oc2cc(N(C)S(C)(=O)=O)c(-c3ccc(F)c(-c4cc5cccnc5[nH]4)c3)cc12` [Example 855], 1.2 nM.

Consider `CNC(=O)c1c(-c2ccc(F)cc2)oc2cc(N(CCCO)S(C)(=O)=O)c(-c3cc(F)cc(-c4nc5ncccc5o4)c3)cc12` [Example 856], for which the 50% inhibitory concentration (IC50) came out at 4 nM. Still for that read-out and setting: the figure for `CNC(=O)c1c(-c2ccc(F)cc2)oc2cc(N(C)S(C)(=O)=O)c(-c3ccc(OC)c(-c4nc5cc(F)ccc5o4)c3)cc12` [Example 857] is 2.6 nM. The same measure, in the same setting: with `CNC(=O)c1c(-c2ccc(F)cc2)oc2cc(N(C)S(C)(=O)=O)c(-c3ccc(OC)c(-c4nc5cccc(C#N)c5o4)c3)cc12` [Example 858] the figure was 2.8 nM; with `CNC(=O)c1c(-c2ccc(F)cc2)oc2cc(N(CCC(C)(C)O)S(C)(=O)=O)c(-c3cccc(-c4nc5ncccc5o4)c3)cc12` [Example 859], 2.1 nM. Still for that read-out and setting: the figure for `CNC(=O)c1c(-c2ccc(F)cc2)oc2cc(N(C)S(C)(=O)=O)c(-c3ccc(OC)c(-c4cc5cc(F)ccc5[nH]4)c3)cc12` [Example 860] is 1.9 nM; for `CNC(=O)c1c(-c2ccc(F)cc2)oc2cc(N(C)S(C)(=O)=O)c(-c3cc(OC)cc(-c4cc5cccnc5[nH]4)c3)cc12` [Example 861] it is 1.8 nM; for `CNC(=O)c1c(-c2ccc(F)cc2)oc2cc(N(C)S(C)(=O)=O)c(-c3cc(F)cc(-c4nc5ncc(F)cc5o4)c3)cc12` [Example 862] it is 1.3 nM.

The same assay, now with this note: read-out: 1b IC50; HCV genotype 1b replicon; 96 hours incubation; NS3/4A cell ELISA.
For `CNC(=O)c1c(-c2ccc(F)cc2)oc2cc(N(CC(O)Cn3ccnc3)S(C)(=O)=O)c(-c3ccc(OC)c(-c4nc5c(F)cccc5o4)c3)cc12` (stereo not shown) [Example 824], the pIC50 is 7.75.
